pIC50: −log10 of the molar value. Values after ≈ are worked out from the molar mass of the structure shown. Active and inactive are the calls of the source. No cut-off for these calls is given here.
What was measured:
[1] = Half-life in NOD SCID mouse at 100 mg/kg, po; type: ADME, organism-based; conditions: in vivo
[2] = target: Phosphatidylinositol 4-phosphate 3-kinase C2 domain-containing subunit alpha (Homo sapiens) (UniProt O00443); assay: Inhibition of PIK3C2A (unknown origin) at 10 uM in presence of ATP at Km concentration
A498 [3] = assay: Inhibition of cell invasion in human A498 cells cultured as 3D spheroids at 5 uM measured after 7 days by light microscopic imaging analysis relative to control; type: functional; conditions: A498, 168 h, time 7 day
[4] = target: Mitogen-activated protein kinase kinase kinase kinase 5 (Homo sapiens) (UniProt Q9Y4K4); assay: Inhibition of MAP4K5 (unknown origin) at 10 uM in presence of ATP at Km concentration
[5] = Volume of distribution in NOD SCID mouse at 1 mg/kg, iv; type: ADME, organism-based; conditions: in vivo
A498 [6] = assay: Antiproliferative activity against human A498 cells incubated for 48 hrs by XTT assay; type: functional, cell-based; conditions: A498, 48 h
[7] = Aqueous solubility of compound in SIF at pH 7.5; type: ADME
[8] = target: Ribosomal protein S6 kinase alpha-4 (Homo sapiens) (UniProt O75676); assay: Inhibition of RPS6KA4 (unknown origin) at 10 uM in presence of ATP at Km concentration
[9] = target: Vascular endothelial growth factor receptor 2 (Homo sapiens) (UniProt P35968); assay: Inhibition of KDR (unknown origin) at 10 uM in presence of ATP at Km concentration
A498 [10] = assay: Antimetastatic activity against human A498 cells labeled with vybrant DiD cell-labeling solution xenografted in zebrafish embryo assessed as fold reduction in metastasis area at 1 uM pre-infected with cells for 24 hrs followed by compound addition and measured after 48 hrs by fluorescence microscopic imaging analysis; type: functional
[11] = Stability in human microsomes assessed as half-life; type: ADME, Microsome
[12] = Genotoxicity in Salmonella typhimurium TA1537 upto 100 uM in presence of S9 fraction by Ames test; type: toxicity, subcellular; conditions: salmonella enterica subsp. enterica serovar typhimurium, s9, 100 µM
[13] = target: Ribosomal protein S6 kinase alpha-2 (Homo sapiens) (UniProt Q15349); assay: Inhibition of RPS6KA2 (unknown origin) at 10 uM in presence of ATP at Km concentration
[14] = C0 in NOD SCID mouse at 1 mg/kg, iv; type: ADME, organism-based; conditions: in vivo
[15] = Lipophilicity, logD of compound at pH 7.4; type: physicochemical; conditions: buffer
[16] = target: [Pyruvate dehydrogenase (acetyl-transferring)] kinase isozyme 1, mitochondrial (Homo sapiens) (UniProt Q15118); assay: Inhibition of PDK1 (unknown origin) at 10 uM in presence of ATP at Km concentration
[17] = Stability of compound at pH 2 measured after 24 hrs; type: physicochemical; conditions: buffer, pH 2, 24 h
[18] = Genotoxicity in Salmonella typhimurium TA1537 upto 100 uM in absence of S9 fraction by Ames test; type: toxicity; conditions: salmonella enterica subsp. enterica serovar typhimurium, s9, 100 µM
[19] = system: Cisplatin and radiotherapy resistant CAL33RR; assay: Inhibition of cell invasion in human Cisplatin and radiotherapy resistant CAL33RR cells cultured as 3D spheroid at 5 uM measured after 7 days by light microscopic imaging analysis; type: functional, cell-based; conditions: time 7.0 day
[20] = target: T1, Interleukin-8 receptors, CXCR1/CXCR2 (Homo sapiens) (UniProt P25025+P25024); assay: Inhibition of CXCR1/2 pathway in human A498 cells assessed as reduction in AKT phosphorylation at 2.5 uM incubated for 24 to 48 hrs by immunoblot analysis; type: functional, cell-based; conditions: time 24-48 hrs
[21] = target: Serine/threonine-protein kinase PAK 4 (Homo sapiens) (UniProt O96013); assay: Inhibition of PAK4 (unknown origin) at 10 uM in presence of ATP at Km concentration
[22] = target: CDK8/Cyclin C (Homo sapiens) (UniProt P49336+P24863); assay: Inhibition of CDK8/cyclin C (unknown origin) at 10 uM in presence of ATP at Km concentration; type: protein-complex assay
[23] = target: T1, Interleukin-8 receptors, CXCR1/CXCR2 (Homo sapiens); assay: Inhibition of CXCR1/2 pathway in human A498 cells assessed as reduction in ERK phosphorylation at 2.5 uM incubated for 24 to 48 hrs by immunoblot analysis; type: functional, cell-based; conditions: time 24-48 hrs
[24] = Toxicity in athymic nude mouse xenografted with human 786-0 cells assessed as discernible signs at 100 mg/kg, po administered twice daily via gavage for 28 days; type: organism-based; conditions: in vivo, 672 h, time 28 day
[25] = Toxicity in athymic nude mouse xenografted with human 786-0 cells assessed as effect on behavior at 100 mg/kg, po administered twice daily via gavage for 28 days; type: organism-based; conditions: in vivo, 672 h, time 28 day
[26] = target: G protein-coupled receptor kinase 5 (Homo sapiens) (UniProt P34947); assay: Inhibition of GRK5 (unknown origin) at 10 uM in presence of ATP at Km concentration
A498 [27] = assay: Inhibition of CXCL8 secretion in human A498 cells at 1 to 2.5 uM incubated for 48 hrs by ELISA; type: functional, cell-based; conditions: dose 1-2.5 µM
[28] = Genotoxicity in Salmonella typhimurium TA100 upto 100 uM in absence of S9 fraction by Ames test; type: toxicity; conditions: salmonella enterica subsp. enterica serovar typhimurium, s9, 100 µM
[29] = target: Casein kinase I isoform gamma-3 (Homo sapiens) (UniProt Q9Y6M4); assay: Inhibition of CSNK1G3 (unknown origin) at 10 uM in presence of ATP at Km concentration
[30] = Aqueous solubility of compound in PBS; type: physicochemical
[31] = target: Ephrin type-B receptor 2 (Homo sapiens) (UniProt P29323); assay: Inhibition of EPHB2 (unknown origin) at 10 uM in presence of ATP at Km concentration
[32] = target: Mitogen-activated protein kinase kinase kinase kinase 2 (Homo sapiens) (UniProt Q12851); assay: Inhibition of MAP4K2 (unknown origin) at 10 uM in presence of ATP at Km concentration
[33] = target: cGMP-dependent protein kinase 1 (Homo sapiens) (UniProt Q13976); assay: Inhibition of PRKG1 (unknown origin) at 10 uM in presence of ATP at Km concentration
[34] = Stability in human hepatocytes assessed as intrinsic clearance measured per 10^6 cells; type: ADME, cell-based, Hepatocyte; conditions: read-out: CLH
[35] = target: Ribosomal protein S6 kinase beta-2 (Homo sapiens) (UniProt Q9UBS0); assay: Inhibition of RPS6KB2 (unknown origin) at 10 uM in presence of ATP at Km concentration
[36] = target: Serine/threonine-protein kinase TAO1 (Homo sapiens) (UniProt Q7L7X3); assay: Inhibition of TAOK1 (unknown origin) at 10 uM in presence of ATP at Km concentration
[37] = target: Focal adhesion kinase 1 (Homo sapiens) (UniProt Q05397); assay: Inhibition of PTK2 (unknown origin) at 10 uM in presence of ATP at Km concentration
[38] = Genotoxicity in Salmonella typhimurium TA1535 upto 100 uM in absence of S9 fraction by Ames test; type: toxicity; conditions: salmonella enterica subsp. enterica serovar typhimurium, s9, 100 µM
CAL-33 = assay: Antiproliferative activity against human CAL-33 cells incubated for 48 hrs by XTT assay; type: functional, cell-based; conditions: CAL-33, 48 h
[39] = Stability of compound in DMSO measured after 24 hrs; type: physicochemical

Vascular endothelial growth factor receptor 2 (Homo sapiens), sequence (P35968 whole entry): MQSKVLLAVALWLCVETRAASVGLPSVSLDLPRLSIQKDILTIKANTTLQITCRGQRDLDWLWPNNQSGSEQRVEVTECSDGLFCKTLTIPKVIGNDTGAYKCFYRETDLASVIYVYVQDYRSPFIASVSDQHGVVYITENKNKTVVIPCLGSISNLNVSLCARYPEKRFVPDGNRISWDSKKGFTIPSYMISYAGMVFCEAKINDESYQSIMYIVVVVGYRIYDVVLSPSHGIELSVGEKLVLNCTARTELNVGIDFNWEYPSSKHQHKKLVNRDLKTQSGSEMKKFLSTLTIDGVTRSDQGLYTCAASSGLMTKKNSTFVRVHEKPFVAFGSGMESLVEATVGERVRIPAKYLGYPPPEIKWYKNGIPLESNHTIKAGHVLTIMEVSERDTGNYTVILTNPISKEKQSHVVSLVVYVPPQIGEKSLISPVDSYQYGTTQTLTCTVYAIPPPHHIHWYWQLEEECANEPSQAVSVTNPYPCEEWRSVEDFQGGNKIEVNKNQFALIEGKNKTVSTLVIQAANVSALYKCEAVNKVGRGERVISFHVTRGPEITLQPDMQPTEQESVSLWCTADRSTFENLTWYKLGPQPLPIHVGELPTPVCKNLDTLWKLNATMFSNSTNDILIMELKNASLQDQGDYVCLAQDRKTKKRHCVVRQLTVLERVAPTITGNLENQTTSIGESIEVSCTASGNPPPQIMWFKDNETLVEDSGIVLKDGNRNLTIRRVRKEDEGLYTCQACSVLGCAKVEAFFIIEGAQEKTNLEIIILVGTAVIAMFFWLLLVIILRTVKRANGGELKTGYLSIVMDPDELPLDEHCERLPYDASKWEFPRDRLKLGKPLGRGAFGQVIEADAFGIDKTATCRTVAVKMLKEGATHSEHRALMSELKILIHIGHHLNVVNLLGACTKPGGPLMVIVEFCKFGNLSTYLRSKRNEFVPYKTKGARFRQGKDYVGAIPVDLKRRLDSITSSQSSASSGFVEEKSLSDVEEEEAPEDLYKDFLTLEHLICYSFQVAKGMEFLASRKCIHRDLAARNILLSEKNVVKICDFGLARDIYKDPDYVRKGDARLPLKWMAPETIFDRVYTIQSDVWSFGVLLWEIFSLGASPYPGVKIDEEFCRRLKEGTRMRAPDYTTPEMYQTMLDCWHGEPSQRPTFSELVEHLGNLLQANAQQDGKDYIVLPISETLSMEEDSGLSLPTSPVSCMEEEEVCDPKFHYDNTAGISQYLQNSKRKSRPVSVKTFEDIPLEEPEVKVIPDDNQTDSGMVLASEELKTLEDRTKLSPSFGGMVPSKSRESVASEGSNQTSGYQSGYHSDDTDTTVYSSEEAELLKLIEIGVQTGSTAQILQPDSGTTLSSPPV
cGMP-dependent protein kinase 1 (Homo sapiens), sequence (Q13976 whole entry): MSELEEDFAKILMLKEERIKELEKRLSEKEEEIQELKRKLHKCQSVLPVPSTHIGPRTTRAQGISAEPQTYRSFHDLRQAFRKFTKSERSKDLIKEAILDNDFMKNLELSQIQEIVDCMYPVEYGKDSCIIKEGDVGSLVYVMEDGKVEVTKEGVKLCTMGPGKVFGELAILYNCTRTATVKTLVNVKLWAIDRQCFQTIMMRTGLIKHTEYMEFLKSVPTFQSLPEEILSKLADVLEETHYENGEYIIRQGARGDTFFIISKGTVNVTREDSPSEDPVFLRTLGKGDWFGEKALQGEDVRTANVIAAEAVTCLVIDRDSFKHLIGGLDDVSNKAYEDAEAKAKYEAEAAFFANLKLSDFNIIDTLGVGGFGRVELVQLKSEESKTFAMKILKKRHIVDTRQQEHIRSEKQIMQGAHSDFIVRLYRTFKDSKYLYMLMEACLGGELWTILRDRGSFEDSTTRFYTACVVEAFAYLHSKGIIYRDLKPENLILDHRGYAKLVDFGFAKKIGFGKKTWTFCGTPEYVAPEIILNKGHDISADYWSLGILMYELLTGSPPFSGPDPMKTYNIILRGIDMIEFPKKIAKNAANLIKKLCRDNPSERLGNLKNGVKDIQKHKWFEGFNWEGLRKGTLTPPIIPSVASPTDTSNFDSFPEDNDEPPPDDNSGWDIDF
Ribosomal protein S6 kinase alpha-2 (Homo sapiens), sequence (Q15349 whole entry): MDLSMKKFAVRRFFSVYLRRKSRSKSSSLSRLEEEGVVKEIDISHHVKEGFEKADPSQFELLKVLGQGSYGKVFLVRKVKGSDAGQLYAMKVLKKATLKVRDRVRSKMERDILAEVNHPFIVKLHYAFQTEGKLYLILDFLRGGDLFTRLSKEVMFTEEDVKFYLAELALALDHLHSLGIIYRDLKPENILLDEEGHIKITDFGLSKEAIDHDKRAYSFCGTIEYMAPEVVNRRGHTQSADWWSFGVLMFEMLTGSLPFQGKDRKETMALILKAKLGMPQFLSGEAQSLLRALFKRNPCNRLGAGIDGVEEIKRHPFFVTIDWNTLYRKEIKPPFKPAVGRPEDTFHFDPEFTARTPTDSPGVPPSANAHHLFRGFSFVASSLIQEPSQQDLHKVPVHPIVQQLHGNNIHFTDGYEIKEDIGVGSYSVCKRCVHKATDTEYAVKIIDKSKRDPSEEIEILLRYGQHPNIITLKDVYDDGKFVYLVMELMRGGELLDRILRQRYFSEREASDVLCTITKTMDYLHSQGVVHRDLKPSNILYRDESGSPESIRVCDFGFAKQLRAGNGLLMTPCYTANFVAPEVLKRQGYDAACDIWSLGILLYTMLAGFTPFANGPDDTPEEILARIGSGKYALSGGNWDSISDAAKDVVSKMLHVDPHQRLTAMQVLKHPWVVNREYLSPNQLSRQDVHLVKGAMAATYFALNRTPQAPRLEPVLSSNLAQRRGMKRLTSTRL
Mitogen-activated protein kinase kinase kinase kinase 2 (Homo sapiens), sequence (Q12851 whole entry): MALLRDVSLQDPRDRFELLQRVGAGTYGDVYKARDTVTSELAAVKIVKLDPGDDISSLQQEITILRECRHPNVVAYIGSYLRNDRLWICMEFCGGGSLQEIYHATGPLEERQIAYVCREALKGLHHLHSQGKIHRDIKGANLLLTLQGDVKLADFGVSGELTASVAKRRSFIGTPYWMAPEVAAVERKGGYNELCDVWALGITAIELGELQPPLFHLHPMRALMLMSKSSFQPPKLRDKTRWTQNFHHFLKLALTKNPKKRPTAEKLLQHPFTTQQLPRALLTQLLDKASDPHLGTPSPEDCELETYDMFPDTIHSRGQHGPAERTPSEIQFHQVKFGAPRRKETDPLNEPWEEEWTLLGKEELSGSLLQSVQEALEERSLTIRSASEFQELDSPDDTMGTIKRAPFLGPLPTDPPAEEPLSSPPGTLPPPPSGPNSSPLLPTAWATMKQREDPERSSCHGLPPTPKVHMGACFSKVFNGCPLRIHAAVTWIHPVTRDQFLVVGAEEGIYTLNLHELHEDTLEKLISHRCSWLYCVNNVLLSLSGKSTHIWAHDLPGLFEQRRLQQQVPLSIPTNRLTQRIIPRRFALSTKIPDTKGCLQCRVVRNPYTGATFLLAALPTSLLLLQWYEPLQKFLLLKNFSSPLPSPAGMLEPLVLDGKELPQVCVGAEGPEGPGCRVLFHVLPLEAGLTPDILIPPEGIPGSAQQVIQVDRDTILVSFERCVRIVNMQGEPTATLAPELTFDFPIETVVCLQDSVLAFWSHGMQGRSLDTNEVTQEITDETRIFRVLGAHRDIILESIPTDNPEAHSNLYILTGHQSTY
Mitogen-activated protein kinase kinase kinase kinase 5 (Homo sapiens), sequence (Q9Y4K4 whole entry, looked up): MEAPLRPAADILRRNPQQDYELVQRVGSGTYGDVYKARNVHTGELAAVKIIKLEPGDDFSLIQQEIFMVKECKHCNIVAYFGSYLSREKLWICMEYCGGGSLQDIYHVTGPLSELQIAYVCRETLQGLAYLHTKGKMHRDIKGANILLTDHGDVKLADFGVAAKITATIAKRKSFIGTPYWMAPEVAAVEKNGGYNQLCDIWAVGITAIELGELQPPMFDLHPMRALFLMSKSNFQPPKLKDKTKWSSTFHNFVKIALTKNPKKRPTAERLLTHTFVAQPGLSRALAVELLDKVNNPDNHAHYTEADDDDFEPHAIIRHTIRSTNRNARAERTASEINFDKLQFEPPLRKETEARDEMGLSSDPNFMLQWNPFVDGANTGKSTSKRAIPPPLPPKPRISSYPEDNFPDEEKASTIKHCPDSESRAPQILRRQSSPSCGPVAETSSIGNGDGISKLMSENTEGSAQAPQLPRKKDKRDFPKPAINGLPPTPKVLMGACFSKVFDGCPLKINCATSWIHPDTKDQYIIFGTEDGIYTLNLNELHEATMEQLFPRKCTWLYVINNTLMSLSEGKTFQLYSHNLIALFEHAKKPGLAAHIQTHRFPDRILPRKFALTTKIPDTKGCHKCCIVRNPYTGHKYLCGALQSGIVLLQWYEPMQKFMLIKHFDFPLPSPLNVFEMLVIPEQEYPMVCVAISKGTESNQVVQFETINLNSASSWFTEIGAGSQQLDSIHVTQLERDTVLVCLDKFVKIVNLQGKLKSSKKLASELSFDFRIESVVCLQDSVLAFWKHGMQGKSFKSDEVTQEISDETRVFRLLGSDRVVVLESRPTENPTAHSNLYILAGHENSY
Ribosomal protein S6 kinase beta-2 (Homo sapiens), sequence (Q9UBS0 whole entry): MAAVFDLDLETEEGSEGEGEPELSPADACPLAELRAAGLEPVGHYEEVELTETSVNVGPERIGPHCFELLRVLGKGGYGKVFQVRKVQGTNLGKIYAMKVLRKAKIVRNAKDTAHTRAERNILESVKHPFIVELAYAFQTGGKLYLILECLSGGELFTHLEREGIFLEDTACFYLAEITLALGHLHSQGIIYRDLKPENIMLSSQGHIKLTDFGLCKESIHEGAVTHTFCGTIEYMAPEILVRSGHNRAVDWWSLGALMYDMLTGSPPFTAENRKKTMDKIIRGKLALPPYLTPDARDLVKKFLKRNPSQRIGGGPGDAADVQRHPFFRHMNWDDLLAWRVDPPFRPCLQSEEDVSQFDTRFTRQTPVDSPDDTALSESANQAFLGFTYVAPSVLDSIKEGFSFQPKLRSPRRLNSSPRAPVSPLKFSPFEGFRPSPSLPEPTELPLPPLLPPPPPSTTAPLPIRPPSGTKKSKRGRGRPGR

For `O=C(Nc1cc(Cl)cc(Cl)c1)Nc1nc2ccc([N+](=O)[O-])cc2s1`, the half-life [1] was 2.2 h, the inhibition [2] was “inactive” and the inhibition at 5 µM (A498 [3]) was over 75%. For the same compound, the inhibition [4] was “inactive”, the Vd [5] was 1 L/kg and the pIC50 (A498 [6]) was 5.70. For the same compound, the solubility [7] was 3 µM (≈ 1.15 µg/mL), the inhibition [8] was “inactive” and the inhibition [9] was “inactive”. For the same compound, the “fold change (FC)” value (A498 [10]) was about 4, the half-life [11] was over 1 h and the Activity [12] was “Non-Toxic”. For the same compound, the inhibition [13] was “inactive”, the C0 [14] was 3.6 µM and the logD [15] was 2.86. The inhibition [16] was “inactive”, the Stability [17] was “Stable” and the Activity [18] was “Non-Toxic”. The inhibition [19] was “Active”, the inhibition [20] was “Active” and the inhibition [21] was “inactive”. The inhibition [22] was “inactive”, the inhibition [23] was “Active” and the Activity [24] was “Non-Toxic”. The Activity [25] was “Non-Toxic”, the inhibition [26] was “inactive” and the inhibition (A498 [27]) was “Active”. The Activity [28] was “Non-Toxic”, the inhibition [29] was “inactive” and the solubility [30] was 1.9 µM (≈ 0.728 µg/mL). The inhibition [31] was “inactive”, the inhibition [32] was “inactive” and the inhibition [33] was “inactive”. The hepatocyte CLint [34] was 35.9 µL/min/1e6 cells, the inhibition [35] was “inactive” and the inhibition [36] was “inactive”. For the same compound, the inhibition [37] was “inactive”, the Activity [38] was “Non-Toxic” and the pIC50 (CAL-33) was 5.40. For the same compound, the Stability [39] was “Stable”.

— ChEMBL document CHEMBL5532720, “A Potent Solution for Tumor Growth and Angiogenesis Suppression via an ELR+CXCL-CXCR1/2 Pathway Inhibitor” (ACS Med Chem Lett, 2024)
